Measurements: patent US6956040B2, “Oxazolidinone piperazinyl derivatives as potential antimicrobials” (Ranbaxy Laboratories Limited, priority 2001, dated 2005)
Values after ≈ are worked out from the molar mass of the structure shown.

How the values were obtained:
Test in all cases: MIC, agar incorporation method
VRE 6A = assay type: cell-based, Enterococcus faecium; conditions: VRE 6A; agar incorporation
Description: (§1) The compounds of the invention display antibacterial activity when tested by the agar incorporation method. The following minimum inhibitory concentrations (μg/ml) were obtained for representative compounds of the invention which are given below in the following tables.
(§2) • 1) S.aureus ATCC 25923—Staphylococus aureus ATCC 25923 • 2) MRSA 15187—Methicillin Resistant Staphylococcus aureus • 3) Ent. faecalis ATCC 29212—Enterococcus faecalis ATCC 29212 • 4) Ent. faecium 6A—Enterococcus faecium 6A Van®, Cipro® • 5) Strep. pne. ATCC 6303—Streptococcus pneumoniae ATCC 6303 • 6) Strep. pyog. ATCC 19615—Streptococcus pyogenes • 7) S. epidermidis—Staphylococcus epidermidis ATCC 12228
(§3) Briefly, the compounds were dissolved in DMSO and doubling dilution of the compounds were incorporated into Meuller Hilton agar before solidification. Inoculum was prepared by suspending 4 to 5 colonies into 5 ml of normal saline solution and adjusting the turbidity to 0.5 Macfarland turbidity standard tables (1.5×10^8 CFU/ml), after appropriate dilutions, 10^4 CFU/spot was transfered into the surface of dried plate and incubated for 18 hours (24 hours for MRSN studies). The concentration showing no growth of the inoculated culture was recorded as the MIC. Appropriate ATCC standard strains were simultaneously tested and result recorded only when the MIC's against standard antibiotics were within the acceptable range.

S. pneum AB 34 = assay type: cell-based, Streptococcus pneumoniae; conditions: S. pneum AB 34; agar incorporation
Description: as §1, §3

E. faecalis 29212 = assay type: cell-based, Enterococcus faecalis; conditions: E. faecalis 29212; agar incorporation
Description: as §1, §2, §3

MRSA 33 = assay type: cell-based, Staphylococcus aureus; conditions: MRSA 33; agar incorporation
Description: as §1, §3

MRSA 15187 = assay type: cell-based, Staphylococcus aureus; conditions: MRSA 15187; agar incorporation
Description: as §1, §2, §3

S. aureus 25923 = assay type: cell-based, Staphylococcus aureus; conditions: S. aureus 25923; agar incorporation
Description: as §1, §2, §3

S. pyogenes 19615 = assay type: cell-based, Streptococcus pyogenes; conditions: S. pyogenes 19615; agar incorporation
Description: as §1, §2, §3

S. pneum 6303 = assay type: cell-based, Streptococcus pneumoniae; conditions: S. pneum 6303; agar incorporation
Description: as §1, §2, §3

MRSA 562 = assay type: cell-based, Staphylococcus aureus; conditions: MRSA 562; agar incorporation; Table 1
Description: as §1, §3

SMILES	MIC (VRE 6A) [µg/mL]	MIC (S. pneum AB 34) [µg/mL]	MIC (E. faecalis 29212) [µg/mL]	MIC (MRSA 33) [µg/mL]	MIC (MRSA 15187) [µg/mL]	MIC (S. aureus 25923) [µg/mL]	MIC (S. pyogenes 19615) [µg/mL]	MIC (S. pneum 6303) [µg/mL]	MIC (MRSA 562) [µg/mL]
CC(=O)NC[C@H]1CN(c2ccc(N3CCN(Cc4ccc([N+](=O)[O-])o4)CC3)c(F)c2)C(=O)O1.O=C(O)CC(O)(CC(=O)O)C(=O)O [Compound No. 17]	4	1	2	2	2	2	1	2	
CC(=O)NC[C@H]1CN(c2ccc(N3CC4C(C3)C4N(C)C(=O)c3ccoc3)c(F)c2)C(=O)O1 (stereo partly drawn) [Compound No. 32, (S)-N-[[3-[3-Fluoro[4-[3-(1α, 5α, 6α)-6-[N-(3-furoyl)-N-methyl]amino]-3-azabicyclo-[3.1.0]hexane]phenyl]-2-oxo-5-oxazolidinyl]methyl]acetamide]	8 (≈ 17.5 µM)	4 (≈ 8.76 µM)	8 (≈ 17.5 µM)	8 (≈ 17.5 µM)	8 (≈ 17.5 µM)	8 (≈ 17.5 µM)	1 (≈ 2.19 µM)	4 (≈ 8.76 µM)	
CC(=O)NC[C@H]1CN(c2ccc(N3C[C@@H]4[C@H](C3)[C@H]4N(C)C(=O)c3ccc(Br)o3)c(F)c2)C(=O)O1 [Compound No. 33, (S)-N-[[3-[3-Fluoro[4-[3-(1α,5α,6α)-6-[N-(5-bromo-2-furoyl)-N-methyl]amino]-3-azabicyclo-[3.1.0]hexane]phenyl]-2-oxo-5-oxazolidinyl]methyl]acetamide]	4 (≈ 7.47 µM)	4 (≈ 7.47 µM)	4 (≈ 7.47 µM)	4 (≈ 7.47 µM)	4 (≈ 7.47 µM)	4 (≈ 7.47 µM)	0.5 (≈ 0.934 µM)	8 (≈ 14.9 µM)	
CC(=O)NC[C@H]1CN(c2ccc(N3CCC(N(C)Cc4ccc([N+](=O)[O-])s4)CC3)c(F)c2)C(=O)O1 [Compound No. 51, (S)-N-[[3-[4-[4-(N-methyl-N-2-thienyl(5-nitro)methyl)-aminopiperidine-1-yl]-3-fluorophenyl]-2oxo-oxazolidin-5-yl]methyl]acetamide]	4 (≈ 7.91 µM)	2 (≈ 3.96 µM)	4 (≈ 7.91 µM)	1 (≈ 1.98 µM)	1 (≈ 1.98 µM)	2 (≈ 3.96 µM)	0.5 (≈ 0.989 µM)		1 (≈ 1.98 µM)
CC(=O)NC[C@H]1CN(c2ccc(N3CC4C(C3)C4N(C)Cc3ccc(C=O)o3)c(F)c2)C(=O)O1 (stereo partly drawn) [Compound No. 72, (S)-N-[[3-[3-Fluoro[4-[3-(1α,5α,6α)-6-[N-(5-formyl-2-furylmethyl)-N-methyl]amino]-3-azabicyclo-[3.1.0]hexane]phenyl]-2-oxo-5-oxazolidinyl]methyl]acetamide]	8 (≈ 17 µM)	4 (≈ 8.5 µM)	8 (≈ 17 µM)	4 (≈ 8.5 µM)	4 (≈ 8.5 µM)	8 (≈ 17 µM)	0.25 (≈ 0.531 µM)	4 (≈ 8.5 µM)	
CC(=O)NC[C@H]1CN(c2ccc(N3CC4C(C3)C4N(C)C(=O)c3ccsc3)c(F)c2)C(=O)O1 (stereo partly drawn) [Compound No. 73, (S)-N-[[3-[3-Fluoro[4-[3-(1α,5α,6α)-6-[N-(3-thienoyl)-N-methyl]amino]-3-azabicyclo-[3.1.0]hexane]phenyl]-2-oxo-5-oxazolidinyl]methyl]acetamide]	8 (≈ 16.9 µM)	8 (≈ 16.9 µM)	8 (≈ 16.9 µM)	8 (≈ 16.9 µM)	8 (≈ 16.9 µM)	8 (≈ 16.9 µM)	1 (≈ 2.12 µM)	4 (≈ 8.46 µM)	

Next, values leading:

MIC (VRE 6A) [µg/mL]	MIC (S. pneum AB 34) [µg/mL]	MIC (E. faecalis 29212) [µg/mL]	MIC (MRSA 33) [µg/mL]	MIC (MRSA 15187) [µg/mL]	MIC (S. aureus 25923) [µg/mL]	MIC (S. pyogenes 19615) [µg/mL]	MIC (S. pneum 6303) [µg/mL]	MIC (MRSA 562) [µg/mL]	SMILES
2 (≈ 4.65 µM)	1 (≈ 2.32 µM)	2 (≈ 4.65 µM)	4 (≈ 9.29 µM)	2 (≈ 4.65 µM)	2 (≈ 4.65 µM)	1 (≈ 2.32 µM)	2 (≈ 4.65 µM)		CC(=O)NC[C@H]1CN(c2ccc(N3CCN(C(=O)c4ccco4)CC3)c(F)c2)C(=O)O1 [Compound No. 01, (S)-N-[[3-[3-Fluoro-4-[N-1-[4-(2-furoyl)piperazinyl]]-phenyl]-2-oxo-5-oxazolidinyl]methyl]acetamide]
8 (≈ 18 µM)	8 (≈ 18 µM)	8 (≈ 18 µM)	2 (≈ 4.5 µM)	2 (≈ 4.5 µM)	1 (≈ 2.25 µM)	8 (≈ 18 µM)	4 (≈ 9 µM)	1 (≈ 2.25 µM)	CC(=O)NC[C@H]1CN(c2ccc(N3CCN(Cc4ccc(C=O)o4)CC3)c(F)c2)C(=O)O1 [Compound No. 02, (S)-N-[[3-[3-Fluoro-4-[N-1[4-{2-furyl(5-formyl)methyl}]piperazinyl]phenyl]-2-oxo-5-oxazolidinyl]methyl]acetamide]
8 (≈ 16.7 µM)	4 (≈ 8.35 µM)	8 (≈ 16.7 µM)	4 (≈ 8.35 µM)	4 (≈ 8.35 µM)	16 (≈ 33.4 µM)	4 (≈ 8.35 µM)	4 (≈ 8.35 µM)		CC(=O)NC[C@H]1CN(c2ccc(N3CCN(C(=O)c4ccc(CCl)o4)CC3)c(F)c2)C(=O)O1 [Compound No. 05, (S)-N-[[3-Fluoro-4-[N-1[4-(5-chloromethyl-2-furoyl)piperazinyl]phenyl]-2-oxo-5-oxazolidinyl]methyl]acetamide]
4 (≈ 8.57 µM)	8 (≈ 17.1 µM)	8 (≈ 17.1 µM)	4 (≈ 8.57 µM)	4 (≈ 8.57 µM)	8 (≈ 17.1 µM)	1 (≈ 2.14 µM)	4 (≈ 8.57 µM)		CC(=O)NC[C@H]1CN(c2ccc(N3CCN(Cc4ccc(Cl)s4)CC3)c(F)c2)C(=O)O1 [Compound No. 10, (S)-N[[3-[3-Fluoro-4-[N-1[4-{2-thienyl(5-chloro)methyl}]-piperazinyl]phenyl]2-oxo-5-oxazolidinyl]methyl]acetamide]
8 (≈ 16.8 µM)	8 (≈ 16.8 µM)	8 (≈ 16.8 µM)	8 (≈ 16.8 µM)	8 (≈ 16.8 µM)	8 (≈ 16.8 µM)	1 (≈ 2.09 µM)	8 (≈ 16.8 µM)		CC(=O)NC[C@H]1CN(c2ccc(N3CCN(Cc4ccc([N+](=O)[O-])s4)CC3)c(F)c2)C(=O)O1 [Compound No. 23, (S)-N[[3-[3-Fluoro-4-[N-1[4-{2-thienyl(5-nitro)methyl}]piperazinyl]phenyl]2-oxo-5-oxazolidinyl]methyl]acetamide]
16 (≈ 34.8 µM)	8 (≈ 17.4 µM)	8 (≈ 17.4 µM)	2 (≈ 4.35 µM)	2 (≈ 4.35 µM)	2 (≈ 4.35 µM)	4 (≈ 8.71 µM)	8 (≈ 17.4 µM)		CC(=O)NC[C@H]1CN(c2ccc(N3CCN(Cc4ccc(C=NO)o4)CC3)c(F)c2)C(=O)O1 [Compound No. 60, (S)-N-[[3-[3-Fluoro-4-[N-1-[4-(2-furyl-(5-aldoxime)methyl}]piperazinyl]phenyl]-2-oxo-5-oxazolidinyl]methyl]acetamide]
8 (≈ 12.3 µM)	8 (≈ 12.3 µM)	8 (≈ 12.3 µM)	8 (≈ 12.3 µM)	8 (≈ 12.3 µM)	8 (≈ 12.3 µM)	8 (≈ 12.3 µM)	8 (≈ 12.3 µM)		COC(=O)Cc1ccc(NC(=O)ON=Cc2ccc(CN3CCN(c4ccc(N5C[C@H](CNC(C)=O)OC5=O)cc4F)CC3)o2)cc1 [Compound No. 61]
